These results are taken from PubChem BioAssay AID248 (DTP/NCI, 2004).

The test has as its system L1210 leukemia ip in BDF1 mice, survival T/C. Nature of the test: NCI In Vivo Anticancer Drug Screen. Data for tumor model L1210 Leukemia (intraperitoneal) in B6D2F1 (BDF1) mice. As to conditions: endpoint: mean survival time, higher = longer survival. In a few lines:
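Tumor cells were implanted, animals were treated, and survival was followed. The result divides the treated measurement by the vehicle-control measurement.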

[1] abbreviates: dose: 100.0 mg/kg/injection, schedule: Q04DX003 (ip), vehicle: Klucel (hydroxypropylcellulose) (HPC).
Setting [2] is: dose: 200.0 mg/kg/injection, schedule: Q04DX003 (ip), vehicle: Klucel (hydroxypropylcellulose) (HPC).
[3] abbreviates: dose: 400.0 mg/kg/injection, schedule: Q04DX003 (ip), vehicle: Klucel (hydroxypropylcellulose) (HPC).
Where [4] appears, read: dose: 100.0 mg/kg/injection, schedule: Q01DX001 (ip), vehicle: saline.
[5] abbreviates: dose: 200.0 mg/kg/injection, schedule: Q01DX001 (ip), vehicle: saline.
[6] abbreviates: dose: 400.0 mg/kg/injection, schedule: Q01DX001 (ip), vehicle: saline.

“And” between values parts separate entries of the source, which are not always exact repeats. Identical values can stand only once. Inconclusive results and toxic doses are left out.

Regarding `O[C@H](CN1CC1)[C@@H](O)CN1CC1`, the T/C (dose: 0.05 mg/kg/injection, schedule: Q01DX010 (oral), vehicle: other) was 114 % of control; the T/C (dose: 0.05 mg/kg/injection, schedule: Q01DX010 (oral), vehicle: saline) is 111 % of control; the T/C (dose: 0.05 mg/kg/injection, schedule: Q01DX Z (ip), vehicle: methylcellulose (MC)) was 154 % of control; the T/C (dose: 0.1 mg/kg/injection, schedule: Q01DX010 (oral), vehicle: saline) was 118 % of control; the T/C (dose: 0.1 mg/kg/injection, schedule: Q01DX Z (ip), vehicle: methylcellulose (MC)) is 87 % of control; the T/C (dose: 0.1 mg/kg/injection, schedule: Q01DX Z (oral), vehicle: saline) is 101 % of control. For the same molecule, the T/C (dose: 0.13 mg/kg/injection, schedule: Q01DX009 (ip), vehicle: saline) is 187 % of control and 192 % of control; the T/C (dose: 0.2 mg/kg/injection, schedule: Q01DX010 (oral), vehicle: other) was 157 % of control; the T/C (dose: 0.25 mg/kg/injection, schedule: Q01DX009 (ip), vehicle: saline) is 204 % of control and 206 % of control; the T/C (dose: 0.3 mg/kg/injection, schedule: Q01DX Z (oral), vehicle: saline) was 111 % of control; the T/C (dose: 0.4 mg/kg/injection, schedule: Q01DX010 (oral), vehicle: saline) is 164 % of control; the T/C (dose: 0.44 mg/kg/injection, schedule: Q01DX Z (oral), vehicle: saline) was 172 % of control. For the same molecule, the T/C (dose: 0.5 mg/kg/injection, schedule: Q01DX009 (ip), vehicle: saline) is 221 % of control and 257 % of control; the T/C (dose: 0.66 mg/kg/injection, schedule: Q01DX Z (oral), vehicle: saline) was 182 % of control; the T/C (dose: 0.8 mg/kg/injection, schedule: Q01DX010 (oral), vehicle: other) is 88 % of control; the T/C (dose: 0.8 mg/kg/injection, schedule: Q01DX010 (oral), vehicle: saline) is 108 % of control; the T/C (dose: 1.0 mg/kg/injection, schedule: Q01DX009 (ip), vehicle: saline) is 104 % of control and 88 % of control; the T/C (dose: 1.0 mg/kg/injection, schedule: Q01DX Z (ip), vehicle: methylcellulose (MC)) was 121 % of control. Moreover, the T/C runs as follows: (dose: 1.0 mg/kg/injection, schedule: Q01DX Z (oral), vehicle: saline) 122 % of control; (dose: 1.5 mg/kg/injection, schedule: Q01DX Z (oral), vehicle: saline) 97 % of control.
On to `CC(C)(C)C(=O)NCc1ccccc1`, for which the T/C is 100 % of control (dose: 100.0 mg/kg/injection, schedule: Q01DX001 (ip), vehicle: saline with Tween-80); 96 % of control (dose: 200.0 mg/kg/injection, schedule: Q01DX001 (ip), vehicle: saline with Tween-80); 96 % of control (dose: 400.0 mg/kg/injection, schedule: Q01DX001 (ip), vehicle: saline with Tween-80).
Regarding `Cc1c(CNc2ccc(C(=O)NC(CC(=O)O)C(=O)O)cc2)ccc2nc(N)nc(N)c12` (centres undefined), the T/C was 122 % of control (dose: 0.05 mg/kg/injection, schedule: Q01DX009 (ip), vehicle: other); 117 % of control (dose: 0.06 mg/kg/injection, schedule: Q01DX009 (ip), vehicle: other); 94 % of control (dose: 0.1 mg/kg/injection, schedule: Q01DX009 (ip), vehicle: carboxymethylcellulose (CMC)); 152 % of control (dose: 0.1 mg/kg/injection, schedule: Q01DX009 (ip), vehicle: other); 115 % of control (dose: 0.19 mg/kg/injection, schedule: Q01DX009 (ip), vehicle: other); 175 % of control (dose: 0.19 mg/kg/injection, schedule: Q01DX009 (ip), vehicle: water). Besides, the T/C (dose: 0.25 mg/kg/injection, schedule: Q01DX009 (ip), vehicle: other) was 101 % of control; the T/C (dose: 0.38 mg/kg/injection, schedule: Q01DX009 (ip), vehicle: other) is 102 % of control; the T/C (dose: 0.38 mg/kg/injection, schedule: Q01DX009 (ip), vehicle: water) was 116 % of control; the T/C (dose: 0.5 mg/kg/injection, schedule: Q02DX005 (ip), vehicle: water) was 205 % of control; the T/C (dose: 0.75 mg/kg/injection, schedule: Q01DX009 (ip), vehicle: carboxymethylcellulose (CMC)) is 91 % of control; the T/C (dose: 0.75 mg/kg/injection, schedule: Q01DX009 (ip), vehicle: water) is 94 % of control. The T/C is 158 % of control (dose: 1.0 mg/kg/injection, schedule: Q02DX005 (ip), vehicle: water); 98 % of control (dose: 1.5 mg/kg/injection, schedule: Q01DX009 (ip), vehicle: water); 124 % of control (dose: 1.56 mg/kg/injection, schedule: Q01DX001 (ip), vehicle: other); 167 % of control (dose: 1.69 mg/kg/injection, schedule: Q04DX003 (ip), vehicle: water); 97 % of control (dose: 3.0 mg/kg/injection, schedule: Q01DX009 (ip), vehicle: water); 173 % of control (dose: 3.38 mg/kg/injection, schedule: Q04DX003 (ip), vehicle: water). Also, the T/C (dose: 4.0 mg/kg/injection, schedule: Q02DX005 (ip), vehicle: water) was 118 % of control; the T/C (dose: 6.75 mg/kg/injection, schedule: Q04DX003 (ip), vehicle: water) is 195 % of control; the T/C (dose: 8.0 mg/kg/injection, schedule: Q02DX005 (ip), vehicle: water) is 89 % of control; the T/C (dose: 12.5 mg/kg/injection, schedule: Q01DX001 (ip), vehicle: other) is 159 % of control; the T/C (dose: 13.5 mg/kg/injection, schedule: Q04DX003 (ip), vehicle: water) was 224 % of control; the T/C (dose: 25.0 mg/kg/injection, schedule: Q01DX001 (ip), vehicle: carboxymethylcellulose (CMC)) was 98 % of control. Also, the T/C was 98 % of control (dose: 25.0 mg/kg/injection, schedule: Q01DX001 (ip), vehicle: other); 119 % of control (dose: 27.0 mg/kg/injection, schedule: Q04DX003 (ip), vehicle: water); 155 % of control (dose: 50.0 mg/kg/injection, schedule: Q01DX001 (ip), vehicle: carboxymethylcellulose (CMC)); 158 % of control (dose: 100.0 mg/kg/injection, schedule: Q01DX001 (ip), vehicle: carboxymethylcellulose (CMC)).
Regarding `O=C1c2ccccc2C(=Cc2c3ccccc3cc3ccccc23)c2ccccc21`, the T/C runs as follows: (dose: 25.0 mg/kg/injection, schedule: Q04DX002 (ip), vehicle: Klucel (hydroxypropylcellulose) (HPC)) 97 % of control; (dose: 50.0 mg/kg/injection, schedule: Q04DX002 (ip), vehicle: Klucel (hydroxypropylcellulose) (HPC)) 106 % of control; (dose: 100.0 mg/kg/injection, schedule: Q04DX002 (ip), vehicle: Klucel (hydroxypropylcellulose) (HPC)) 94 % of control.
With `O=S(=O)(NO)c1cccc(S(=O)(=O)NO)c1`, the T/C by setting is: (dose: 100.0 mg/kg/injection, schedule: Q01DX009 (ip), vehicle: saline) 97 % of control; under setting [1], 89 % of control; (dose: 200.0 mg/kg/injection, schedule: Q01DX009 (ip), vehicle: saline) 87 % of control; under setting [2], 95 % of control; under setting [3], 92 % of control.
For the molecule `Cc1ccccc1/C=C1\CC(C)(C)c2ccccc2C1=O`, the T/C by setting is: (dose: 100.0 mg/kg/injection, schedule: Q01DX009 (ip), vehicle: Klucel (hydroxypropylcellulose) (HPC)) 105 % of control; under setting [1], 95 % of control; (dose: 200.0 mg/kg/injection, schedule: Q01DX009 (ip), vehicle: Klucel (hydroxypropylcellulose) (HPC)) 97 % of control; under setting [2], 95 % of control; (dose: 400.0 mg/kg/injection, schedule: Q01DX009 (ip), vehicle: Klucel (hydroxypropylcellulose) (HPC)) 97 % of control; under setting [3], 97 % of control.
Consider `CCOc1ccc(/C=C(\NC(=O)c2ccccc2)C(=O)Nc2ccccc2)cc1OC`, for which the T/C is, setting by setting: under setting [1], 100 % of control; under setting [2], 87 % of control; under setting [3], 91 % of control.
Consider `C/C(=N/OC(=O)N(C)C)c1cccc(Cl)c1`, for which the T/C reads like this: (dose: 44.0 mg/kg/injection, schedule: Q01DX001 (ip), vehicle: saline) 95 % of control and 103 % of control; (dose: 66.0 mg/kg/injection, schedule: Q01DX001 (ip), vehicle: saline) 95 % of control and 101 % of control; under setting [4], 94 % of control and 95 % of control; (dose: 150.0 mg/kg/injection, schedule: Q01DX001 (ip), vehicle: saline) 101 % of control and 112 % of control; under setting [5], 97 % of control; under setting [6], 103 % of control.
In the case of `CCCC1(c2ccccc2)NC(=O)NC1=O` (centres undefined), the T/C runs as follows: under setting [4], 96 % of control; under setting [5], 102 % of control.
In the case of `CCOC(Nc1ccccc1[N+](=O)[O-])C(=O)c1ccccc1` (centres undefined), the T/C was 91 % of control under setting [4], 86 % of control under setting [5] and 89 % of control under setting [6].
